According to ChEMBL document CHEMBL5365464, “Structure-Based Optimization of the Third Generation Type II Macrocycle TRK Inhibitors with Improved Activity against Solvent-Front, xDFG, and Gatekeeper Mutations” (J Med Chem, 2023):
pIC50: −log10 of the molar value.

Assays:
BaF3 [1] = assay: cells; conditions: Mus musculus, BaF3, 72 h
BaF3 [2] = assay: Antiproliferative activity against mouse BaF3 cells harbouring CD74-NTRK1 fusion protein incubated for 3 days by CCK8 method; conditions: BaF3, 72 h
BaF3 [3] = assay: Antiproliferative activity against mouse BaF3 cells harbouring ETV6-NTRK3 fusion protein incubated for 3 days by CCK8 method; conditions: BaF3, 72 h
BaF3 [4] = assay: Antiproliferative activity against mouse BaF3 cells harbouring CD74-NTRK1 G595R mutant fusion protein incubated for 3 days by CCK8 method; assay type: functional, cell-based; conditions: BaF3, 72 h
[5] = biological target: High affinity nerve growth factor receptor (Homo sapiens, UniProt P04629, G667C); assay: Inhibition of TRKA G667C mutant (unknown origin) expressed in baculovirus expression system Sf9 cells using Ser/Thr 06 as peptide substrate incubated for 1 hr in presence of ATP by FRET based Z-LYTE assay
[6] = biological target: High affinity nerve growth factor receptor (Homo sapiens, UniProt P04629); assay: Inhibition of N-terminal hexa his tagged TRKA (485 to 795 residues) (unknown origin) expressed in baculovirus expression system Sf9 cells using Ser/Thr 06 as peptide substrate incubated for 1 hr in presence of ATP by FRET based Z-LYTE assay
[7] = biological target: NT-3 growth factor receptor (Homo sapiens, UniProt Q16288); assay: Inhibition of TRKC (unknown origin) using Ser/Thr 06 as peptide substrate incubated for 1 hr in presence of ATP by FRET based Z-LYTE assay
[8] = biological target: High affinity nerve growth factor receptor (Homo sapiens, UniProt P04629, G595R); assay: Inhibition of TRKA G595R mutant (unknown origin) expressed in baculovirus expression system Sf9 cells using Ser/Thr 06 as peptide substrate incubated for 1 hr in presence of ATP by FRET based Z-LYTE assay
BaF3 [9] = assay: Antiproliferative activity against mouse BaF3 cells harbouring CD74-[…] mutant fusion protein incubated for 3 days by CCK8 method; assay type: functional, cell-based; conditions: BaF3, 72 h
BaF3 [10] = assay: Antiproliferative activity against mouse BaF3 cells harbouring TRKA-F589L fusion protein incubated for 3 days by CCK8 method; conditions: BaF3, 72 h
BaF3 [11] = assay: Antiproliferative activity against mouse BaF3 cells harbouring ETV6-TRKB V617M mutant incubated for 3 days by CCK8 method; conditions: BaF3, 72 h
BaF3 [12] = assay: Antiproliferative activity against mouse BaF3 cells harbouring ETV6-TRKC G696A mutant incubated for 3 days by CCK8 method; conditions: BaF3, 72 h
BaF3 [13] = assay: Antiproliferative activity against mouse BaF3 cells harbouring ETV6-TRKC G623R mutant incubated for 3 days by CCK8 method; conditions: BaF3, 72 h
BaF3 [14] = assay: Antiproliferative activity against mouse BaF3 cells harbouring CD74-TRKA G6678 mutant incubated for 3 days by CCK8 method; conditions: BaF3, 72 h
BaF3 [15] = assay: Antiproliferative activity against mouse BaF3 cells harbouring ETV6-TRKB G639R mutant incubated for 3 days by CCK8 method; conditions: BaF3, 72 h
BaF3 [16] = assay: cells; conditions: Mus musculus, BaF3, 72 h; remark: listed apart in the source
BaF3 [17] = assay: Antiproliferative activity against mouse BaF3 cells harbouring ETV6-TRKB G709C mutant incubated for 3 days by CCK8 method; conditions: BaF3, 72 h
BaF3 [18] = assay: Antiproliferative activity against mouse BaF3 cells harbouring ETV6-TRKC G696C mutant incubated for 3 days by CCK8 method; conditions: BaF3, 72 h
BaF3 [19] = assay: Antiproliferative activity against mouse BaF3 cells harbouring ETV6-TRKC G6968 mutant incubated for 3 days by CCK8 method; conditions: BaF3, 72 h
BaF3 [20] = assay: Antiproliferative activity against mouse BaF3 cells harbouring ETV6-TRKB F633L mutant incubated for 3 days by CCK8 method; conditions: BaF3, 72 h
BaF3 [21] = assay: Antiproliferative activity against mouse BaF3 cells incubated for 3 days by CCK8 method; conditions: BaF3, 72 h
BaF3 [22] = assay: cells; conditions: Mus musculus, BaF3, 72 h; remark: listed apart in the source
BaF3 [23] = assay: Antiproliferative activity against mouse BaF3 cells harbouring ETV6-TRKC F617L mutant incubated for 3 days by CCK8 method; conditions: BaF3, 72 h
BaF3 [24] = assay: Antiproliferative activity against mouse BaF3 cells harbouring ETV6-TRKC V601M mutant incubated for 3 days by CCK8 method; conditions: BaF3, 72 h
BaF3 [25] = assay: Antiproliferative activity against mouse BaF3 cells harbouring ETV6-TRKC G623E mutant incubated for 3 days by CCK8 method; conditions: BaF3, 72 h
BaF3 [26] = assay: Antiproliferative activity against mouse BaF3 cells harbouring wild type ETV6-TRKB incubated for 3 days by CCK8 method; conditions: BaF3, 72 h
BaF3 [27] = assay: Antiproliferative activity against mouse BaF3 cells harbouring CD74-TRKA G667A mutant incubated for 3 days by CCK8 method; conditions: BaF3, 72 h

Sequence of NT-3 growth factor receptor (Q16288 whole entry): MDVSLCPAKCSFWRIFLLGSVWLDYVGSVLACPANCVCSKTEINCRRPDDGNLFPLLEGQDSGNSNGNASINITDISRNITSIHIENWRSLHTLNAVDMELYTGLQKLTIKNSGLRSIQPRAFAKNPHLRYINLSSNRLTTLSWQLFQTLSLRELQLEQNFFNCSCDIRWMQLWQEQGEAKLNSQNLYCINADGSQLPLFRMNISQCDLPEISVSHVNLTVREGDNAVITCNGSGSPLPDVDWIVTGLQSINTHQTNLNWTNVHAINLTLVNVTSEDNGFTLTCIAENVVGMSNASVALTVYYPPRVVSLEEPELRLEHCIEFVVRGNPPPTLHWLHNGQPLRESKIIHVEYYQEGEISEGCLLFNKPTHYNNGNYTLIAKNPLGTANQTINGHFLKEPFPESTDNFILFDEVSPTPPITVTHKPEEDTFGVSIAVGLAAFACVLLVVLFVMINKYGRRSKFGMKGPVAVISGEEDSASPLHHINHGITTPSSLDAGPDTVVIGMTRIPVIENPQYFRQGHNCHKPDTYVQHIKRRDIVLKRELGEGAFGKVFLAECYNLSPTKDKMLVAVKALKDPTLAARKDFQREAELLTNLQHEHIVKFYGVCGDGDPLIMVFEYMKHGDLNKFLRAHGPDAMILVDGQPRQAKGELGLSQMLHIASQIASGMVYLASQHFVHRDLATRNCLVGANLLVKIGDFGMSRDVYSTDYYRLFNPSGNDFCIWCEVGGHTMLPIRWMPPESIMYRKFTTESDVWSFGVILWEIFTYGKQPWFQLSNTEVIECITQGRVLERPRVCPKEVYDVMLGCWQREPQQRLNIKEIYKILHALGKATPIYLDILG
Sequence of High affinity nerve growth factor receptor (Homo sapiens, UniProt P04629, G667C) (P04629 33-796 G667C limits assumed): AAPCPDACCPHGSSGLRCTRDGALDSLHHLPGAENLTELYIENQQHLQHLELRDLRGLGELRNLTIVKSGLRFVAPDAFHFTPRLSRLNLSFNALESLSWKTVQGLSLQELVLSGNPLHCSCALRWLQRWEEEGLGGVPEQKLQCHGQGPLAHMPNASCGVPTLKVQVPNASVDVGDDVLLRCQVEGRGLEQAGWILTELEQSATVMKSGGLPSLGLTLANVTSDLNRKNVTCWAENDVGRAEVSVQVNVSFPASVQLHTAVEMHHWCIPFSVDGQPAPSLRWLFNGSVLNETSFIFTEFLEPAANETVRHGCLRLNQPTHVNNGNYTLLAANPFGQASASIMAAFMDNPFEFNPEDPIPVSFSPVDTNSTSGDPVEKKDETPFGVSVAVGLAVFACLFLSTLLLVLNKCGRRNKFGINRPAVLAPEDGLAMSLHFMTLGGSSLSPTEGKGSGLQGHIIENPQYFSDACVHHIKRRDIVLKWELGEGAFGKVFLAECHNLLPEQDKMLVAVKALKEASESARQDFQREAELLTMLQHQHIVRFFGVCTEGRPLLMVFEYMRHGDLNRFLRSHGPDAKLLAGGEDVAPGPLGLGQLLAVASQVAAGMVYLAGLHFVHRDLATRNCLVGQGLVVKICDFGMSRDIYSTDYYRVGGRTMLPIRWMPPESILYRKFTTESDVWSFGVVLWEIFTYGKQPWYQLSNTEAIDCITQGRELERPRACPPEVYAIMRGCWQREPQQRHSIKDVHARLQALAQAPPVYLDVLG
Sequence of High affinity nerve growth factor receptor (Homo sapiens, UniProt P04629) (P04629 whole entry, the tested form may be a part): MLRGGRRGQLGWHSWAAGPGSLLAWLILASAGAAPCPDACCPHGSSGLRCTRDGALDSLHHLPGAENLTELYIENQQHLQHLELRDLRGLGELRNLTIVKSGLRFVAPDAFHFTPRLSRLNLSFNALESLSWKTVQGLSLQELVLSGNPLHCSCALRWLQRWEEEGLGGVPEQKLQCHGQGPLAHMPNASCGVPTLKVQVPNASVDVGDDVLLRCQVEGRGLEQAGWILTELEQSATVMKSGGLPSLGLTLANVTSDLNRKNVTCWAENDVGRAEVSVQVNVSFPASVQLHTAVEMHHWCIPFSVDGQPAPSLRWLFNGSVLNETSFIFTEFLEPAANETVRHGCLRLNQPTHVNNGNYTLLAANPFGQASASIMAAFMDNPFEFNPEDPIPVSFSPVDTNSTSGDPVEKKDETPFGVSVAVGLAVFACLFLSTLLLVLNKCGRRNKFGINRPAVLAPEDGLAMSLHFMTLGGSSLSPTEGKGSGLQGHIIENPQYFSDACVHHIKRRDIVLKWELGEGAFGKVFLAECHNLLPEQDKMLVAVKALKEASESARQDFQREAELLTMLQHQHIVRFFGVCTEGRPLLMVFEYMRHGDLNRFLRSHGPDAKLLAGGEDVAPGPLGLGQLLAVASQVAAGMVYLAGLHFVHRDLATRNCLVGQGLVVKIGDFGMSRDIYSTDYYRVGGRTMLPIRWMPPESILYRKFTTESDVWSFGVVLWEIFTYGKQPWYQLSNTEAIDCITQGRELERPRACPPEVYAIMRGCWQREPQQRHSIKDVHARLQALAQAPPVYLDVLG
Sequence of High affinity nerve growth factor receptor (Homo sapiens, UniProt P04629, G595R) (P04629 33-796 G595R limits assumed): as the sequence (P04629 33-796 G667C limits assumed) above, with G563R, C635G counted along it

| SMILES | pIC50 (BaF3 [1]) | pIC50 (BaF3 [2]) | pIC50 (BaF3 [3]) | pIC50 (BaF3 [4]) | pIC50 [5] | pIC50 [6] | pIC50 [7] | pIC50 [8] | further results |
| --- | --- | --- | --- | --- | --- | --- | --- | --- | --- |
| Cc1cn(-c2cc(NC(=O)c3cc4cc(c3C)C#Cc3cnc5ccc(nn35)NCCN(C)C(=O)CCCCO4)cc(C(F)(F)F)c2)cn1 | 8.26 | 7.47 | 7.77 | 6.76 | 8.13 | 7.76 | 8.23 | 6.91 | – |
| Cc1c2cc(cc1C(=O)Nc1cc(Cl)cc(C(F)(F)F)c1)OCCCCCCCNC(=O)c1ccc3ncc(n3n1)C#C2 | – | – | – | – | 8.09 | 7.40 | – | < 6.00 | – |
| Cc1c2cc(cc1NC(=O)Nc1ccc(Cl)c(C(F)(F)F)c1)OCCCCCCCNC(=O)c1ccc3ncc(n3n1)C#C2 | – | – | – | – | – | – | 7.37 | – | – |
| Cc1cn(-c2cc(NC(=O)c3cc4cc(c3C)C#Cc3cnc5ccc(nn35)C(=O)NCCCCCCO4)cc(C(F)(F)F)c2)cn1 | 7.77 | 6.38 | 6.27 | – | 7.91 | 7.29 | 8.02 | 6.25 | – |
| Cc1c2cc(cc1C(=O)Nc1cc(C(C)(C)C)nn1-c1ccc(Cl)cc1)OCCCCCCCNC(=O)c1ccc3ncc(n3n1)C#C2 | 7.99 | 6.99 | 7.15 | – | 7.83 | 6.79 | 7.87 | < 6.00 | – |
| Cc1c2cc(cc1C(=O)Nc1cc(CN3CCN(C)CC3)cc(C(C)C)c1)OCCCCCCCNC(=O)c1ccc3ncc(n3n1)C#C2 | 8.41 | 7.69 | 6.98 | 7.37 | 7.77 | 8.11 | 8.55 | 7.97 | pIC50 (BaF3 [9]): 7.72; pIC50 (BaF3 [10]): 7.49 |
| Cc1c2cc(cc1C(=O)Nc1cc(N3CCC(N4CCOCC4)CC3)cc(C(F)(F)F)c1)OCCCCCCCNC(=O)c1ccc3ncc(n3n1)C#C2 | 8.42 | 7.29 | 7.53 | 7.17 | 8.47 | 7.58 | 8.07 | 6.96 | pIC50 (BaF3 [10]): < 6.00 |
| Cc1c2cc(cc1C(=O)Nc1cc(CN3CCCN(C)CC3)cc(C(F)(F)F)c1)OCCCCCCCNC(=O)c1ccc3ncc(n3n1)C#C2 | 8.90 | 8.17 | 7.32 | 7.31 | 8.55 | 7.99 | 8.39 | 7.41 | pIC50 (BaF3 [9]): 7.32; pIC50 (BaF3 [10]): 8.06 |
| Cc1c2cc(cc1C(=O)Nc1ccc(CN3CCN(C)CC3)c(C(F)(F)F)c1)OCCCCCCCNC(=O)c1ccc3ncc(n3n1)C#C2 | 8.65 | 7.49 | 5.52 | – | 8.45 | 7.82 | 7.94 | < 6.00 | – |
| Cc1c2cc(cc1C(=O)Nc1cc(CN3CCN(C)CC3)cc(C(F)(F)F)c1)OCCCCCCCNC(=O)c1ccc3ncc(n3n1)C#C2 | – | – | – | – | 8.50 | 7.80 | – | 7.26 | – |
| Cc1cn(-c2cc(NC(=O)c3cc4cc(c3C)C#Cc3cnc5ccc(nn35)NCCC(=O)N(C)CCCCO4)cc(C(F)(F)F)c2)cn1 | – | – | – | – | 8.23 | 7.68 | – | 7.04 | – |
| Cc1cn(-c2cc(NC(=O)c3cc4cc(c3C)C#Cc3cnc5ccc(nn35)NCCNC(=O)CCCCO4)cc(C(F)(F)F)c2)cn1 | 7.39 | 6.57 | 6.69 | < 6.00 | 8.09 | 7.61 | 8.15 | < 6.00 | – |
| Cc1c2cc(cc1C(=O)Nc1cc(CN3CCN(C)CC3)cc(C(C)(C)C)c1)OCCCCCCCNC(=O)c1ccc3ncc(n3n1)C#C2 | 8.22 | 7.46 | 6.79 | 7.18 | 8.51 | 7.72 | 8.28 | 7.51 | pIC50 (BaF3 [9]): 7.92; pIC50 (BaF3 [10]): 7.34 |
| Cc1cn(-c2cc(NC(=O)c3cc4cc(c3C)C#Cc3cnc5ccc(nn35)C(=O)NCCCCCO4)cc(C(F)(F)F)c2)cn1 | 8.07 | 6.87 | 6.86 | – | 6.90 | 7.24 | 7.69 | < 6.00 | – |
| Cc1cn(-c2cc(NC(=O)c3cc4cc(c3C)C#Cc3cnc5ccc(nn35)C(=O)NCCCCCCCCO4)cc(C(F)(F)F)c2)cn1 | 8.09 | 7.22 | 7.49 | – | 8.12 | 7.20 | 7.56 | < 6.00 | – |
| Cc1cn(-c2cc(NC(=O)c3cc4cc(c3C)C#Cc3cnc5ccc(nn35)NCCC(=O)NCCCCO4)cc(C(F)(F)F)c2)cn1 | – | – | – | – | 8.28 | 7.68 | – | 7.07 | – |
| C[C@@H]1CCc2ncc(F)cc2[C@H]2CCCN2c2ccn3ncc(c3n2)C(=O)N1 [SELITRECTINIB] | 7.65 | 8.87 | 8.87 | 7.99 | – | – | – | – | pIC50 (BaF3 [11]): 7.58; pIC50 (BaF3 [12]): 8.38; pIC50 (BaF3 [9]): 7.58; pIC50 (BaF3 [13]): 8.29; pIC50 (BaF3 [14]): 7.43; pIC50 (BaF3 [15]): 7.39; pIC50 (BaF3 [16]): < 6.00; pIC50 (BaF3 [17]): 7.38; pIC50 (BaF3 [18]): 7.32; pIC50 (BaF3 [19]): 7.96; pIC50 (BaF3 [20]): 7.45; pIC50 (BaF3 [21]): < 6.00; pIC50 (BaF3 [22]): 6.37; pIC50 (BaF3 [23]): 7.76; pIC50 (BaF3 [24]): 7.51; pIC50 (BaF3 [25]): 8.13; pIC50 (BaF3 [10]): 7.50; pIC50 (BaF3 [26]): 8.63; pIC50 (BaF3 [27]): 8.47 |
